Data published in patent US10034861B2 (priority 2016, dated 2018).
pIC50: −log10 of the molar value. Read-outs that look alike come from different tables or passages of the source.

What was measured:
Format in all cases: biochemical
PDE1B = PDE1B (Homo sapiens (Human), UniProt Q01064); experiment: PDE1 inhibition assay (PDE1B); settings: 15 nM tritium labelled cAMP, 1 hr at room temperature, SPA beads; for pIC50: read-out: PDE1B, IC50; for IC50: PDE1B, IC50 (nM)
Excerpt: (§1) Table 1 lists the IC50 value for inhibition of PDE1 by the compounds of the invention. […] PDE1 assays are described in the Experimental Section.

PDE1A = PDE1A (Homo sapiens (Human), UniProt P54750); experiment: biochemical; settings: 15 nM tritium labelled cAMP, 1 hr at room temperature, SPA beads
Chain of PDE1A (P54750 whole entry): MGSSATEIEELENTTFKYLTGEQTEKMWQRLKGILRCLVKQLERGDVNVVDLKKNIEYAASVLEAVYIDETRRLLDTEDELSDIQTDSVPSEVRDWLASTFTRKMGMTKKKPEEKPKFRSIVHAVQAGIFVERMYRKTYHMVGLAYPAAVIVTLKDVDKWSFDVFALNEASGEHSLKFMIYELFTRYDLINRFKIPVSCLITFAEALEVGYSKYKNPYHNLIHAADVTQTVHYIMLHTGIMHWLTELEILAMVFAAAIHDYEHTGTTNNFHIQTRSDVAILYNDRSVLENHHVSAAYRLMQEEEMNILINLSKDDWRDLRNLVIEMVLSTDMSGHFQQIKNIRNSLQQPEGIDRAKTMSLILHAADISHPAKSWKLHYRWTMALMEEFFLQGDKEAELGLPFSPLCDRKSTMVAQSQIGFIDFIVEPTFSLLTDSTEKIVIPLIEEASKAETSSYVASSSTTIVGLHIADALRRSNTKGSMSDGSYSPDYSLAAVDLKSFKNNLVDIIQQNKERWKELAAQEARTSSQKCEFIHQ
Excerpt: as §1

PDE1C = PDE1C (Homo sapiens (Human), UniProt Q14123); experiment: biochemical
Chain of PDE1C (Q14123 whole entry): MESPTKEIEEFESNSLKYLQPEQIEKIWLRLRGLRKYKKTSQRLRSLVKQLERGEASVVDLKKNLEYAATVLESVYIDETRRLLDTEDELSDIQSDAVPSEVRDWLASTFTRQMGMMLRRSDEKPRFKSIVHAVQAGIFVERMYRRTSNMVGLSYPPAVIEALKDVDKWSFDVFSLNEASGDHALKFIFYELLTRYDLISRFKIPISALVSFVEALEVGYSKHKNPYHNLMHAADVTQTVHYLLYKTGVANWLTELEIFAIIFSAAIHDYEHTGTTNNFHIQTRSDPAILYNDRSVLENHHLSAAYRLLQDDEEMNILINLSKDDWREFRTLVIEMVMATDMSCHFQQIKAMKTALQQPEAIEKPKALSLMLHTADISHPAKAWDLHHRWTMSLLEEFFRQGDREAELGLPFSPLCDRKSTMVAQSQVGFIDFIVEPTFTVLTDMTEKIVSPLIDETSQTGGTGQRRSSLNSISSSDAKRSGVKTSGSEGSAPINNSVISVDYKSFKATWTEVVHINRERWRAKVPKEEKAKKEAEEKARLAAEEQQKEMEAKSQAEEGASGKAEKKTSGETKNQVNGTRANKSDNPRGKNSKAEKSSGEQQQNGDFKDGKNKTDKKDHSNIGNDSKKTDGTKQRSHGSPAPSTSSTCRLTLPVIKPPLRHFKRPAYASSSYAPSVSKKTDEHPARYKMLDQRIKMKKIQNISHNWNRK
Excerpt: as §1

[1] = 15 nM tritium labelled cAMP, 1 hr at room temperature, SPA beads

Chain of PDE1B (Q01064 whole entry): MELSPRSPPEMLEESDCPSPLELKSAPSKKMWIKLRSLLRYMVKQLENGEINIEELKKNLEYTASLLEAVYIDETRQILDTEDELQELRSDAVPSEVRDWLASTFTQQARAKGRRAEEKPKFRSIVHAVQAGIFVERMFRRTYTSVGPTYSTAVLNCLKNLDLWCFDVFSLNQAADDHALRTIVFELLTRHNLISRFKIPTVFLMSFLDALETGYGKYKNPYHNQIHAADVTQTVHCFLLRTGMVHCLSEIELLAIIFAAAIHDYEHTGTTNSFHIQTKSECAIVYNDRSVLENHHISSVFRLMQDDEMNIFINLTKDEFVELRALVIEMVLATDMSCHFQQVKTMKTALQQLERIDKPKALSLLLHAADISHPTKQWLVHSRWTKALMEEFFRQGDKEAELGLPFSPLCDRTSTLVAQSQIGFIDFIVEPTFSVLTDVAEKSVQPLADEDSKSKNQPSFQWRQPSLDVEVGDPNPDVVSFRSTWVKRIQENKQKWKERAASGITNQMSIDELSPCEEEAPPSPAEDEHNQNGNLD

Row | Structure (SMILES) | pIC50 (PDE1A) | pIC50 (PDE1C; [1]) | also measured
1 | CCOc1ncccc1-c1cc(NCc2ccc(=O)n(C)c2)c2c(n1)c(C)nn2C(C)C [Example 45] | – | – | pIC50 (PDE1B): 9.21
2 | CCOc1ncccc1-c1cc(NCc2ncn(C)n2)c2c(n1)c(C)nn2C(C)CC (single isomer, unassigned) [Example 121, 5-(2-ethoxy-3-pyridyl)-3-methyl-1-[1-methylpropyl]-N-[(1-methyl-1,2,4-triazol-3-yl)methyl]pyrazolo[4,3-b]pyridin-7-amine] | – | – | IC50 (PDE1B): 0.47 nM
3 | CCOc1ncccc1-c1cc(NCc2cc(C)no2)c2c(n1)c(C)nn2C(C)C [Example 10, 5-(2-ethoxy-3-pyridyl)-1-isopropyl-3-methyl-N-[(3-methylisoxazol-5-yl)methyl]pyrazolo[4,3-b]pyridin-7-amine] | 8.39 | 7.85 | –
4 | CCC1COC(=O)N1c1cc(NCc2cnn(C)c2)c2c(n1)c(C)nn2C(C)C (stereo not shown) [Example 156, 4-ethyl-3-[1-isopropyl-3-methyl-7-[(1-methylpyrazol-4-yl)methylamino]pyrazolo[4,3-b]pyridin-5-yl]oxazolidin-2-one] | – | 8.29 | –
5 | CCOc1ncccc1-c1cc(NCc2noc(C)n2)c2c(n1)c(C)nn2C(C)CC (single isomer, unassigned) [Example 128, 5-(2-ethoxy-3-pyridyl)-3-methyl-N-[(5-methyl-1,2,4-oxadiazol-3-yl)methyl]-1-[1-methylpropyl]pyrazolo[4,3-b]pyridin-7-amine] | – | – | IC50 (PDE1B): 0.26 nM
6 | COc1ncccc1CNc1cc(-c2cccnc2OC)nc2c(C)nn(C(C)C)c12 [Example 95, 1-isopropyl-5-(2-methoxy-3-pyridyl)-N-[(2-methoxy-3-pyridyl)methyl]-3-methyl-pyrazolo[4,3-b]pyridin-7-amine] | 7.38 | – | –
7 | CCOc1ncccc1-c1cc(NCc2cnn(C)c2)c2c(n1)c(C)nn2C(C)C [Example 9, 5-(2-ethoxypyridin-3-yl)-1-isopropyl-3-methyl-N-((1-methyl-1H-pyrazol-4-yl)methyl)-1H-pyrazolo[4,3-b]pyridin-7-amine] | 8.59 | 7.77 | –
8 | CCCn1cc(CNc2cc(-c3cccnc3OCC)nc3c(C)nn(C(C)C)c23)cn1 [Example 110, 5-(2-ethoxy-3-pyridyl)-1-isopropyl-3-methyl-N-[(1-propylpyrazol-4-yl)methyl]pyrazolo[4,3-b]pyridin-7-amine] | 7.96 | 8.07 | –
9 | CCOc1ncccc1-c1cc(NCc2cn(C)cn2)c2c(n1)c(C)nn2C(C)CC (single isomer, unassigned) [Example 132, 5-(2-ethoxy-3-pyridyl)-3-methyl-N-[(1-methylimidazol-4-yl)methyl]-1-[1-methylpropyl]pyrazolo[4,3-b]pyridin-7-amine] | – | – | IC50 (PDE1B): 0.045 nM
10 | CCOc1ncccc1-c1cc(OCc2cnc(C)o2)c2c(n1)c(C)nn2C(C)C [Example 72, 5-[[5-(2-ethoxy-3-pyridyl)-1-isopropyl-3-methyl-pyrazolo[4,3-b]pyridin-7-yl]oxymethyl]-2-methyl-oxazole] | 7.85 | 7.41 | –
11 | CCOc1ncccc1-c1cc(NCc2cc(C)[nH]n2)c2c(n1)c(C)nn2C(C)CC (single isomer, unassigned) [Example 131, 5-(2-ethoxy-3-pyridyl)-3-methyl-1-[1-methylpropyl]-N-[(5-methyl-1H-pyrazol-3-yl)methyl]pyrazolo[4,3-b]pyridin-7-amine] | – | – | IC50 (PDE1B): 0.042 nM
12 | Cc1nn(C(C)C)c2c(NCc3cnn(C)c3)cc(-c3cccnc3N(C)C)nc12 [Example 201, 5-[2-(dimethylamino)-3-pyridyl]-1-isopropyl-3-methyl-N-[(1-methylpyrazol-4-yl)methyl]pyrazolo[4,3-b]pyridin-7-amine] | – | – | pIC50 (PDE1B): 6.64
13 | CCOc1ncccc1-c1cc(NCc2csc(C)n2)c2c(n1)c(C)nn2C(C)C [Example 11, 5-(2-ethoxy-3-pyridyl)-1-isopropyl-3-methyl-N-[(2-methylthiazol-4-yl)methyl]pyrazolo[4,3-b]pyridin-7-amine] | 8.02 | 7.52 | –
14 | CCOc1ncccc1-c1cc(NCc2cncc(OC)c2)c2c(n1)c(C)nn2C(C)CC (single isomer, unassigned; enantiomer 2) [Example 125, 5-(2-ethoxy-3-pyridyl)-N-[(5-methoxy-3-pyridyl)methyl]-3-methyl-1-[1-methylpropyl]pyrazolo[4,3-b]pyridin-7-amine, enantiomer 2] | – | – | IC50 (PDE1B): 0.32 nM
15 | CCOc1ncccc1-c1cc(NCc2cc[nH]n2)c2c(n1)c(C)nn2C(C)CC (single isomer, unassigned) [Example 120, 5-(2-ethoxy-3-pyridyl)-3-methyl-1-[1-methylpropyl]-N-(1H-pyrazol-3-ylmethyl)pyrazolo[4,3-b]pyridin-7-amine] | – | – | pIC50 (PDE1C): 8.12
16 | CCOc1ncccc1-c1cc(NCc2nnc(C)o2)c2c(cnn2C(C)CC)n1 (single isomer, unassigned) [Example 139, 5-(2-ethoxy-3-pyridyl)-N-[(5-methyl-1,3,4-oxadiazol-2-yl)methyl]-1-[1-methylpropyl]pyrazolo[4,3-b]pyridin-7-amine] | 6.48 | – | pIC50 (PDE1C): 6.28

Row | Structure (SMILES) | pIC50 (PDE1A) | pIC50 (PDE1C; [1]) | also measured
17 | CCOc1ncccc1-c1cc(NCc2cnc(C)o2)c2c(n1)c(C)nn2C(C)C [Example 4, 5-(2-ethoxy-3-pyridyl)-1-isopropyl-3-methyl-N-[(2-methyloxazol-5-yl)methyl]pyrazolo[4,3-b]pyridin-7-amine] | 8.07 | 7.72 | –
18 | CCOc1ncccc1-c1cc(NCc2noc(C)n2)c2c(cnn2C(C)C)n1 [Example 43, 5-(2-ethoxy-3-pyridyl)-1-isopropyl-N-[(5-methyl-1,2,4-oxadiazol-3-yl)methyl]pyrazolo[4,3-b]pyridin-7-amine] | 7.52 | 7.10 | –
19 | CCOc1ncccc1-c1cc(NCc2cc[nH]n2)c2c(cnn2C(C)CC)n1 (single isomer, unassigned) [Example 137, 5-(2-ethoxy-3-pyridyl)-1-[1-methylpropyl]-N-(1H-pyrazol-3-ylmethyl)pyrazolo[4,3-b]pyridin-7-amine] | 6.74 | – | pIC50 (PDE1C): 6.47
20 | CCOc1ncccc1-c1cc(NCc2nncn2C)c2c(n1)c(C)nn2C(C)C [Example 162, 5-(2-ethoxy-3-pyridyl)-1-isopropyl-3-methyl-N-[(4-methyl-1,2,4-triazol-3-yl)methyl]pyrazolo[4,3-b]pyridin-7-amine] | 7.00 | 6.74 | –
21 | CCOc1ncccc1-c1cc(NCc2ncccn2)c2c(n1)c(C)nn2C(C)C [Example 74, 5-(2-ethoxy-3-pyridyl)-1-isopropyl-3-methyl-N-(pyrimidin-2-ylmethyl)pyrazolo[4,3-b]pyridin-7-amine] | 8.68 | 8.09 | –
22 | Cc1coc(-c2cc(NCc3cnn(C)c3)c3c(n2)c(C)nn3C(C)C)n1 [Example 202, 1-isopropyl-3-methyl-N-((1-methyl-1H-pyrazol-4-yl)methyl)-5-(4-methyloxazol-2-yl)-1H-pyrazolo[4,3-b]pyridin-7-amine] | 7.04 | 6.77 | –
23 | Cc1nn(C(C)C)c2c(NCc3cccnc3C(F)(F)F)cc(-c3ccc[nH]c3=O)nc12 [Example 193, 3-[1-isopropyl-3-methyl-7-[[2-(trifluoromethyl)-3-pyridyl]methylamino]pyrazolo[4,3-b]pyridin-5-yl]-1H-pyridin-2-one] | 6.49 | 6.06 | –
24 | CCOc1ncccc1-c1cc(NCc2cc(C)n(C)n2)c2c(cnn2C(C)C)n1 [Example 44, N-[(1,5-dimethylpyrazol-3-yl)methyl]-5-(2-ethoxy-3-pyridyl)-1-isopropyl-pyrazolo[4,3-b]pyridin-7-amine] | 7.72 | 7.15 | –
25 | CCOc1ncccc1-c1cc(NCc2nnn(C)n2)c2c(n1)c(C)nn2C(C)C [Example 8, 5-(2-ethoxy-3-pyridyl)-1-isopropyl-3-methyl-N-[(2-methyltetrazol-5-yl)methyl]pyrazolo[4,3-b]pyridin-7-amine] | 8.54 | 8.05 | –
26 | CCCOc1ncccc1-c1cc(NCc2cc[nH]n2)c2c(n1)c(C)nn2C(C)CC (single isomer, unassigned) [Example 135, 3-methyl-1-[1-methylpropyl]-5-(2-propoxy-3-pyridyl)-N-(1H-pyrazol-3-ylmethyl)pyrazolo[4,3-b]pyridin-7-amine] | 8.72 | 8.44 | –
27 | CCOc1ncccc1-c1cc(NCc2ccncn2)c2c(n1)c(C)nn2C(C)C [Example 73, 5-(2-ethoxy-3-pyridyl)-1-isopropyl-3-methyl-N-(pyrimidin-4-ylmethyl)pyrazolo[4,3-b]pyridin-7-amine] | 7.09 | 6.85 | –
28 | CCOc1ncccc1-c1cc(NCc2nnco2)c2c(n1)c(C)nn2C(C)C [Example 59, 5-(2-ethoxy-3-pyridyl)-1-isopropyl-3-methyl-N-(1,3,4-oxadiazol-2-ylmethyl)pyrazolo[4,3-b]pyridin-7-amine] | 7.26 | 6.92 | –
29 | CCCOc1ncccc1-c1cc(NCc2cn[nH]c2)c2c(n1)c(C)nn2C(C)C [Example 196, 1-isopropyl-3-methyl-5-(2-propoxy-3-pyridyl)-N-(1H-pyrazol-4-ylmethyl)pyrazolo[4,3-b]pyridin-7-amine] | 7.74 | 7.57 | –
30 | CCOc1ncccc1-c1cc(NCc2nccc(C)n2)c2c(n1)c(C)nn2C(C)C [Example 75, 5-(2-ethoxy-3-pyridyl)-1-isopropyl-3-methyl-N-[(4-methylpyrimidin-2-yl)methyl]pyrazolo[4,3-b]pyridin-7-amine] | 8.00 | 7.48 | –
31 | CCOc1ncccc1-c1cc(NCc2cc(C)no2)c2c(cnn2C(C)C)n1 [Example 42, 5-(2-ethoxy-3-pyridyl)-1-isopropyl-N-[(3-methylisoxazol-5-yl)methyl]pyrazolo[4,3-b]pyridin-7-amine] | 7.09 | 6.74 | –
